Like-named read-outs stand apart in the source and are kept apart here.
Columns and labels:
Type in all cases: cell-based
[1] = molecular target: T1, Ikaros (protein product of gene IKZF1) (Homo sapiens, UniProt Q13422+Q96SW2); assay: Quantification of Ikaros degradation in OCI-LY10 cells (quantitative immunoblotting); settings: 6 h treatment
T1 construct: endogenous in cells; host or cells: OCI-LY10
Method: (§1) Degradation of Ikaros (protein product of gene IKZF1) and Aiolos (protein product of gene IKZF3) were determined by quantitative immunoblotting as follows. OCI-LY10 cells, 2×10^6 cells/well, were treated with listed concentrations of IRAK4 degraders or control compounds in 6 well plates for 6 h. Cells were collected, washed with cold PBS, lysed in RIPA buffer (Boston BioProducts BP-115D) with protease/phosphatase inhibitor cocktail (Roche 05892791001/Roche 04906837001) and centrifuged at 13000 RPM for 20 min to precipitate insoluble material. The supernatant fraction was diluted in SDS-PAGE loading buffer (Beyotime Bio P0015) and 20 μL of each sample was resolved on 4-12% Bis-Tris SDS-PAGE gels (Novex, WG1402BOX). Resolved samples were transferred to nitrocellulose membranes by wet electro-transfer method at 250 mV for 1.5 h. The membrane was blocked with LICOR blocking buffer (LI-COR, 927-50000) for 1 hour, washed three times with TBST (CST #99975) for 5 minutes each and incubated with primary antibody prepared in block buffer with 0.1% Tween-20 (Solarbio, P8220) at 4° C. overnight. Ikaros antibody was rabbit monoclonal D6N9Y (CST #14859), at 1:1000 dilution. Aiolos antibody was rabbit monoclonal D1C1E (CST #15103), at 1:1000 dilution. Signal was normalized to mouse anti-beta-Actin monoclonal 8H10D10 (CST #3700) used at 1:10,000 dilution. After incubation in primary antibodies, membranes were washed three times with TBST, 5 minutes each, incubated with fluorescently labeled secondary antibodies anti-rabbit IgG (Licor, 926-32211) at 1:5000 dilution; anti-mouse IgG (LI-COR, 926-68070) at 1:5000 dilution, for 1 hour at RT. After incubation in secondary, membranes were washed three times with TBST, 5 minutes each and read on LICOR Odyssey imager. Data was reported as signal for Ikaros or Aiolos relative to signal for actin, and normalized to DMSO-treated control.

[2] = molecular target: T2, Aiolos (protein product of gene IKZF3) (Homo sapiens, UniProt Q96SW2+Q9UKT9); assay: Quantification of Aiolos degradation in OCI-LY10 cells (quantitative immunoblotting); settings: 6 h treatment
T2 construct: endogenous in cells; host or cells: OCI-LY10
T2 sequence (Q9UKT9 whole entry): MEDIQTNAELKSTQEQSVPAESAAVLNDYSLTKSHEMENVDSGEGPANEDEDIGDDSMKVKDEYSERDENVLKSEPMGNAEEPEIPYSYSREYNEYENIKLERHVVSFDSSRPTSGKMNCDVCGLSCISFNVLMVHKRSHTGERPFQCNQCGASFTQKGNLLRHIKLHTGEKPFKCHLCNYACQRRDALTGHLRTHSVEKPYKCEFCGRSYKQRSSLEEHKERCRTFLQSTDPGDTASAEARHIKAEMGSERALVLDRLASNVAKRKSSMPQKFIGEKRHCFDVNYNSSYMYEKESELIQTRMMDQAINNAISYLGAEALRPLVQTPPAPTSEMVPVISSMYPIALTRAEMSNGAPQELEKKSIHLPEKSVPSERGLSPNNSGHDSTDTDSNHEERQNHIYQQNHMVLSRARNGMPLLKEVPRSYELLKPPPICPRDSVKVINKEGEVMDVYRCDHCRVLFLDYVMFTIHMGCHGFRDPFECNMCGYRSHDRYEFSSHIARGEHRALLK
T2 sequence (Q96SW2 whole entry): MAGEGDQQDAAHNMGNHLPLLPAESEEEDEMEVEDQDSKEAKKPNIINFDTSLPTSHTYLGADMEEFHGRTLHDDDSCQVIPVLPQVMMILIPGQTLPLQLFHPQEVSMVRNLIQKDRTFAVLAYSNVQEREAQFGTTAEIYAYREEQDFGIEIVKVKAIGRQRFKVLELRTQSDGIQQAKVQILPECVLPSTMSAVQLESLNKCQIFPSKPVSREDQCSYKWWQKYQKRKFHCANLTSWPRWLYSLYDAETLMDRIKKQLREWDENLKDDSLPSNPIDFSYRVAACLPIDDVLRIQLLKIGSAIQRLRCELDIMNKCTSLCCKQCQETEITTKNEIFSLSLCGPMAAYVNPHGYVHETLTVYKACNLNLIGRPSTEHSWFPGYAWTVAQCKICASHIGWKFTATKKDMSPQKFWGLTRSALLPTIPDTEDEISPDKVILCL
T2 sequence (Q16531 whole entry partner): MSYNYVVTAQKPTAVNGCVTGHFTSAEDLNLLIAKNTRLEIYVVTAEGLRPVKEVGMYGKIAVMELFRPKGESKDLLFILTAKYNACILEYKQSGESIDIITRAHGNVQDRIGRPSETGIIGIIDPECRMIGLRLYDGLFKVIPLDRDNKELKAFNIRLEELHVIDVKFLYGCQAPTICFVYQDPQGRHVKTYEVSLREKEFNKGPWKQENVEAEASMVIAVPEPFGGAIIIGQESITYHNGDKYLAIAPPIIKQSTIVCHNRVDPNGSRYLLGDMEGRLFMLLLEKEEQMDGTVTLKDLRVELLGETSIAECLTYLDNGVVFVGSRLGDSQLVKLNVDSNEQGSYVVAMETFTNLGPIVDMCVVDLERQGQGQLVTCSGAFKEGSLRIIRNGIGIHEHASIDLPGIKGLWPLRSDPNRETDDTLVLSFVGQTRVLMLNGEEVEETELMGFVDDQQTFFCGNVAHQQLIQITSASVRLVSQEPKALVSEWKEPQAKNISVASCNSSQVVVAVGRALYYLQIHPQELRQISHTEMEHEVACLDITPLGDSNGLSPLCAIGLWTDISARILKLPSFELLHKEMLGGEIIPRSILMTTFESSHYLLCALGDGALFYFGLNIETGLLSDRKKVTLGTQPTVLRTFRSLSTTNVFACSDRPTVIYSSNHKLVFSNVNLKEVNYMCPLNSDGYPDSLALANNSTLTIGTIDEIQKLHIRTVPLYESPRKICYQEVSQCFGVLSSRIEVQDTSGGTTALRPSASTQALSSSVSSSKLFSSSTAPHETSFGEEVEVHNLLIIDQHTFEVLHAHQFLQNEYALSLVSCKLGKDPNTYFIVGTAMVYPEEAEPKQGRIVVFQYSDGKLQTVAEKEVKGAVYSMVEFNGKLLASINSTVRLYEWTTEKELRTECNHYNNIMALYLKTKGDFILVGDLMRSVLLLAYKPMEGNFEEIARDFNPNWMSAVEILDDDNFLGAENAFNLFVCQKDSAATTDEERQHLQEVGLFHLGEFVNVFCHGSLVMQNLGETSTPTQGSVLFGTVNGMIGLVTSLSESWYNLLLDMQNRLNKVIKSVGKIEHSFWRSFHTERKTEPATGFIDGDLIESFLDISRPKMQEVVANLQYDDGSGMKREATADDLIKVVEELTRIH
Method: as §1

IRAK4 = molecular target: T3, IRAK4 (Homo sapiens, UniProt Q9NWZ3); assay: IRAK4 MSD Degradation in OCI-LY10; settings: OCI-LY10 cells
T3 construct: endogenous in cells; host or cells: OCI-LY10
T3 sequence (Q9NWZ3 1-460): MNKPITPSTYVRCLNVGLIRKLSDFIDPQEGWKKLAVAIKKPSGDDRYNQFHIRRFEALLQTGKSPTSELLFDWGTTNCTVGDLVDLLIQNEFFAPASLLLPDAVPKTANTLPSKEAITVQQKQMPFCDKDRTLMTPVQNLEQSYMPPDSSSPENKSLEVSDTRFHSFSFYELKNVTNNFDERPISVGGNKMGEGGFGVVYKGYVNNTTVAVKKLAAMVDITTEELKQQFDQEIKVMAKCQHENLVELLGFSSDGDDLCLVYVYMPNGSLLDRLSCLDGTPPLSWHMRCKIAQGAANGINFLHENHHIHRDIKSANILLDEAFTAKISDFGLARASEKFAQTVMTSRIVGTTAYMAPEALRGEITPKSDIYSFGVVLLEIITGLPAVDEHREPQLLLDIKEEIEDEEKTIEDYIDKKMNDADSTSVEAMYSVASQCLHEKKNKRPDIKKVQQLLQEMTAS
Method: Degradation of IRAK4 in OCI-LY10 was quantitatively measured using Meso Scale Discovery technology. OCI-LY10 cells were seeded in 96-well plates (Corning 3799) with a density of 300,000 cells per well in 100 μL fresh media. Compounds were then added to the assay plates with a final top concentration of 1 to 10 μM in a 1:3 dilution series with total of 8 doses. The assay plates were then incubated for 4 to 24 hours at 37° C. under 5% CO2. The assay plates were then centrifuged for 5 minutes and the cell pellets were treated with 100 μL/well RIPA lysis buffer (Boston BioProducts BP-115D) with proteinase inhibitors. To prepare MSD assay plates (Meso Scale Discovery Catalog number L15XA-3), the plates were coated with 2 μg/mL capture antibody (mouse Anti-IRAK4 antibody [2H9], ab119942) in PBS, at 40 μL/well. The plates were then incubated overnight at 4° C., washed 3 times with 150 μL/well TBST buffer (Cell Signaling Technology, Catalog number 9997S) and blocked with 150 μL/well blocking buffer (Meso Scale Discovery Catalog number R93BA-4). Cell lysates were then added to MSD assay plates and the plates were incubated at room temperature for 1 hour. The plates were then washed 3 times with 150 μL/well TBST buffer and 25 μL/well primary detection antibody (rabbit Anti-IRAK4 antibody [Y279], from Abcam. Catalog number ab32511, 1 μg/mL). The assay plates were then incubated at room temperature for 1 hour, washed 3 times with 150 μL/well TBST buffer and 25 μL/well secondary detection antibody, SULFO-TAG anti-rabbit antibody were added (anti rabbit antibody from Meso Scale Discovery, Catalog number R32AB-1, 1 μg/mL). The assay plates were then incubated at room temperature for 1 hour, washed 3 times with 150 μL/well TBST buffer, and 150 μL/well MSD reading buffer (Meso Scale Discovery catalog number R92TC-2) was added. The plates were then analyzed by a MSD reader (Meso Scale Discovery, Model Quick Plex SQ 120). The data was then analyzed by software Prism 7.0 from GraphPad and the dose-depended IRAK4 degradation were fit using a three-parameter logistic equation to calculate DC50.

[3] = 24 hrs incubation, read-out: IRAK4 degradation in OCI-LY10 at 24 hrs: DC50

T1 sequence (Q13422 whole entry): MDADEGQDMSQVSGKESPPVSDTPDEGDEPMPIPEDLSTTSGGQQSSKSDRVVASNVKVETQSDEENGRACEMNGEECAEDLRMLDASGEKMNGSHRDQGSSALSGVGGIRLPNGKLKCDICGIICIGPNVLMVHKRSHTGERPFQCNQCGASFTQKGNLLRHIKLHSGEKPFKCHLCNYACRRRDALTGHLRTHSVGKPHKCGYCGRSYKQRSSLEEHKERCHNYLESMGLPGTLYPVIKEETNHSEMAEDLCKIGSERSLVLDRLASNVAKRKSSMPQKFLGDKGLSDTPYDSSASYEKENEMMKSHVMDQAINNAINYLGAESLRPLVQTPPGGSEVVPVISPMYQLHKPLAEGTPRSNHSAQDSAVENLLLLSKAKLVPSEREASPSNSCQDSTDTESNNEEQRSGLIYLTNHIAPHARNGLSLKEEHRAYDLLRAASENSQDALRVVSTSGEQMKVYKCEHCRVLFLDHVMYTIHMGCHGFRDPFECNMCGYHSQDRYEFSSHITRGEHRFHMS
T1 sequence (Q96SW2 whole entry): as the sequence (Q96SW2 whole entry) above
T1 sequence (Q16531 whole entry partner): as the sequence (Q16531 whole entry partner) above

DC50 [1]	DC50 [2]	DC50 (IRAK4; [3])	DC50 (IRAK4; 4 hrs incubation, read-out: IRAK4 degradation in OCI-LY10 at 4 hrs: DC50)	Compound
< 50 nM	< 50 nM	< 50 nM	–	CC(C)(O)c1cc2nc([C@H]3CC[C@H](CN4CC5(CC(CCNc6cccc7c6C(=O)N([C@@H]6CCC(=O)NC6=O)C7=O)C5)C4)CC3)sc2cc1NC(=O)c1cccc(C(F)(F)F)n1 (single isomer, unassigned) [I-65]
< 50 nM	< 50 nM	–	–	CC(C)(O)c1cc2nc(N3CC(CN4CCC5(CC4)CC(CNc4cccc6c4C(=O)N(C4CCC(=O)NC4=O)C6=O)C5)C3)sc2cc1NC(=O)c1cccc(C(F)(F)F)n1 (stereo not drawn) [I-38]
< 50 nM	< 50 nM	–	–	CC(C)(O)c1cc2nc([C@H]3CC[C@H](CN4CC5(CC(CCCNc6cccc7c6C(=O)N(C6CCC(=O)NC6=O)C7=O)C5)C4)CC3)sc2cc1NC(=O)c1cccc(C(F)(F)F)n1 (stereo partly drawn) [I-13]
< 50 nM	< 50 nM	–	–	CC(C)(O)c1cc2nc(N3CC(CN4CC5(CC(CNc6cccc7c6C(=O)N(C6CCC(=O)NC6=O)C7=O)C5)C4)C3)sc2cc1NC(=O)c1cccc(C(F)(F)F)n1 (stereo not drawn) [I-44]
< 50 nM	< 50 nM	< 50 nM	50 to 100 nM	CC(C)(O)c1cc2nc([C@H]3CC[C@H](CN4CC5(CC(CCNc6cccc7c6C(=O)N(C6CCC(=O)NC6=O)C7=O)C5)C4)CC3)sc2cc1NC(=O)c1cccc(C(F)(F)F)n1 (stereo partly drawn) [I-3, N-[2-[4-[[6-[2-[[2-(2,6-dioxo-3-piperidyl)-1,3-dioxo-isoindolin-4-yl]amino]ethyl]-2-azaspiro[3.3]heptan-2-yl]methyl]cyclohexyl]-5-(1-hydroxy-1-methyl-ethyl)-1,3-benzothiazol-6-yl]-6-(trifluoromethyl)pyridine-2-carboxamide]
< 50 nM	< 50 nM	–	–	CC(C)(O)c1cc2nc(N3CCC(CN4CCC5(CC4)CC(Nc4cccc6c4C(=O)N(C4CCC(=O)NC4=O)C6=O)C5)CC3)sc2cc1NC(=O)c1cccc(C(F)(F)F)n1 (stereo not drawn) [I-4]
< 50 nM	< 50 nM	–	–	CC(C)(O)c1cc2nc(N3CCC(CN4CCC5(CC4)CC(CCNc4cccc6c4C(=O)N(C4CCC(=O)NC4=O)C6=O)C5)CC3)sc2cc1NC(=O)c1cccc(C(F)(F)F)n1 (stereo not drawn) [I-18]
< 50 nM	< 50 nM	–	–	CC(C)(O)c1cc2nc([C@H]3CC[C@H](CN4CCC5(CC4)CC(CCNc4cccc6c4C(=O)N(C4CCC(=O)NC4=O)C6=O)C5)CC3)sc2cc1NC(=O)c1cccc(C(F)(F)F)n1 (stereo partly drawn) [I-5]
< 50 nM	< 50 nM	< 50 nM	–	CC(C)(O)c1cc2nc([C@H]3CC[C@H](CN4CC5(CC(CCNc6cccc7c6C(=O)N(C6CCC(=O)NC6=O)C7=O)C5)C4)CC3)sc2cc1NC(=O)c1cccc(C(C)(F)F)n1 (stereo partly drawn) [I-56]
< 50 nM	< 50 nM	–	–	CC(C)(O)c1cc2nc(N3CCC(CN4CC5(CC(CCNc6cccc7c6C(=O)N(C6CCC(=O)NC6=O)C7=O)C5)C4)CC3)sc2cc1NC(=O)c1cccc(C(F)(F)F)n1 (stereo not drawn) [I-36]

Continued, molecule first:

Compound	DC50 [1]	DC50 [2]	DC50 (IRAK4; [3])	DC50 (IRAK4; 4 hrs incubation, read-out: IRAK4 degradation in OCI-LY10 at 4 hrs: DC50)
COc1cc2nc([C@H]3CC[C@H](CN4CC5(CC(CCNc6cccc7c6C(=O)N(C6CCC(=O)NC6=O)C7=O)C5)C4)CC3)sc2cc1NC(=O)c1cccc(C(F)(F)F)n1 (stereo partly drawn) [I-10]	< 50 nM	< 50 nM	–	–
COc1cc2nc([C@H]3CC[C@H](CN4CC5(CCC(CNc6cccc7c6C(=O)N(C6CCC(=O)NC6=O)C7=O)CC5)C4)CC3)sc2cc1NC(=O)c1cccc(C(C)(F)F)n1 (stereo partly drawn) [I-11]	100 to 500 nM	50 to 100 nM	–	–
CC(C)(O)c1cc2nc([C@H]3CC[C@H](CN4CC5(CC(CCNc6cccc7c6C(=O)N(C6CCC(=O)NC6=O)C7=O)C5)C4)CC3)sc2cc1NC(=O)c1cnn2ccc(N3C[C@H]4C[C@@H]3CO4)nc12 (stereo partly drawn) [I-61]	–	–	> 1000 nM	–
COc1cc2nc([C@H]3CC[C@H](CN4CCC(O[C@H]5C[C@H](Nc6cccc7c6C(=O)N(C6CCC(=O)NC6=O)C7=O)C5)CC4)CC3)sc2cc1NC(=O)c1cccc(C(F)(F)F)n1 (stereo partly drawn) [I-39]	< 50 nM	< 50 nM	–	–
COc1cc2nc([C@H]3CC[C@H](CN4CCC5(CC4)CC(Nc4cccc6c4C(=O)N(C4CCC(=O)NC4=O)C6=O)C5)CC3)sc2cc1NC(=O)c1cccc(C)n1 (stereo partly drawn) [I-15]	100 to 500 nM	50 to 100 nM	–	–
CC(C)(O)c1nc2nc([C@H]3CC[C@H](CN4CC5(CC(CCNc6cccc7c6C(=O)N(C6CCC(=O)NC6=O)C7=O)C5)C4)CC3)sc2cc1NC(=O)c1cccc(C(F)(F)F)n1 (stereo partly drawn) [I-43]	< 50 nM	< 50 nM	–	–
COc1cc2nc([C@H]3CC[C@H](CN4CC5(CC(CCNc6cccc7c6C(=O)N(C6CCC(=O)NC6=O)C7=O)C5)C4)CC3)sc2cc1NC(=O)c1cccc(C(C)(F)F)n1 (stereo partly drawn) [I-8]	< 50 nM	< 50 nM	–	–
COc1cc2nc([C@H]3CC[C@H](CN(C)[C@H]4CC[C@@]5(CC4)C[C@@H](CNc4cccc6c4C(=O)N(C4CCC(=O)NC4=O)C6=O)C5)CC3)sc2cc1NC(=O)c1cccc(C(F)(F)F)n1 (stereo partly drawn) [I-14]	50 to 100 nM	< 50 nM	–	–
COc1cc2nc([C@H]3CC[C@H](CN4CCC5(CC4)CC(CCNc4cccc6c4C(=O)N(C4CCC(=O)NC4=O)C6=O)C5)CC3)sc2cc1NC(=O)c1ccnc(C)n1 (stereo partly drawn) [I-17]	< 50 nM	< 50 nM	–	–
COc1cc2nc([C@H]3CC[C@H](CN4CCC5(CC4)CC(CCNc4cccc6c4C(=O)N(C4CCC(=O)NC4=O)C6=O)C5)CC3)sc2cc1NC(=O)c1cccc(C)n1 (stereo partly drawn) [I-12]	< 50 nM	< 50 nM	–	–
CN(CCCO[C@H]1C[C@H](Nc2cccc3c2C(=O)N(C2CCC(=O)NC2=O)C3=O)C1)C[C@H]1CC[C@H](c2nc3cc(C(C)(C)O)c(NC(=O)c4cccc(C(F)(F)F)n4)cc3s2)CC1 (stereo partly drawn) [I-7]	< 50 nM	< 50 nM	–	–
COc1cc2nc([C@H]3CC[C@H](CN4CC5(CC(CCNc6cccc7c6C(=O)N(C6CCC(=O)NC6=O)C7=O)C5)C4)CC3)sc2cc1NC(=O)c1ccnc(C)n1 (stereo partly drawn) [I-16]	< 50 nM	–	–	–
COc1cc2nc([C@H]3CC[C@H](CN4CCC(CCNc5cccc6c5C(=O)N(C5CCC(=O)NC5=O)C6=O)CC4)CC3)sc2cc1NC(=O)c1cccc(C(C)(F)F)n1 (stereo partly drawn) [I-9]	50 to 100 nM	< 50 nM	–	–

— patent US20210228562A1, “IRAK DEGRADERS AND USES THEREOF” (Kymera Therapeutics, Inc., priority 2019, published 2021)
